In PubChem BioAssay AID1963846 (Molecular Pharmacology Branch, DTP, NCI, 2024):

Test system: 454973-116-R2-J3-PDC complex spheroid viability
Test: Anticancer human tumor 454973-116-R2-J3-PDC patient-derived pancreatic carcinoma cell line growth inhibition [POLQ]
Settings: for IC50: curve of first compound; for viability, T/C: stronger effect = lower value
In short: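 PDC + HUVEC + MSC complex spheroids; POLQ inhibitors ± partner drugs; top conc. at/near clinical Cmax, else 10 microM (SN-38 1 microM), half-log dilutions; 37 degrees C, 5% CO2.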

[1] = second compound 0.0316 µM, first compound 0.0316 µM
[2] = second compound 0.0316 µM, first compound 0.1 µM
[3] = second compound 0.0316 µM, first compound 0.316 µM
[4] = second compound 0.0316 µM, first compound 1 µM
[5] = second compound 0.0316 µM, first compound 3.16 µM
[6] = second compound 0.0316 µM, first compound 10 µM
[7] = second compound 0.1 µM, first compound 0.0316 µM
[8] = second compound 0.1 µM, first compound 0.1 µM
[9] = second compound 0.1 µM, first compound 0.316 µM
[10] = second compound 0.1 µM, first compound 1 µM
[11] = second compound 0.1 µM, first compound 3.16 µM
[12] = second compound 0.1 µM, first compound 10 µM
[13] = second compound 0.316 µM, first compound 0.0316 µM
[14] = second compound 0.316 µM, first compound 0.1 µM
[15] = second compound 0.316 µM, first compound 0.316 µM
[16] = second compound 0.316 µM, first compound 1 µM
[17] = second compound 0.316 µM, first compound 3.16 µM
[18] = second compound 0.316 µM, first compound 10 µM
[19] = second compound 1 µM, first compound 0.0316 µM
[20] = second compound 1 µM, first compound 0.1 µM
[21] = second compound 1 µM, first compound 0.316 µM
[22] = second compound 1 µM, first compound 1 µM
[23] = second compound 1 µM, first compound 3.16 µM
[24] = second compound 1 µM, first compound 10 µM
[25] = second compound 3.16 µM, first compound 0.0316 µM
[26] = second compound 3.16 µM, first compound 0.1 µM
[27] = second compound 3.16 µM, first compound 0.316 µM
[28] = second compound 3.16 µM, first compound 1 µM
[29] = second compound 3.16 µM, first compound 3.16 µM
[30] = second compound 3.16 µM, first compound 10 µM
[31] = second compound 10 µM, first compound 0.0316 µM
[32] = second compound 10 µM, first compound 0.1 µM
[33] = second compound 10 µM, first compound 0.316 µM
[34] = second compound 10 µM, first compound 1 µM
[35] = second compound 10 µM, first compound 3.16 µM
[36] = second compound 10 µM, first compound 10 µM
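Note: spheroids exposed to drugs for seven days before measurement.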
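Throughout, for viability, T/C: percent viability relative to DMSO vehicle control wells taken as 100%.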

CCc1cc2c(N3CCc4c(cc(Cn5ccnc5)cc4-c4cn(C)nc4C(F)(F)F)C3=O)cc(C)nc2c(OC)n1 + Nc1ccc(C#CCN(C(=O)Cc2ncc(C(F)(F)F)cc2C(F)(F)F)c2ccc(F)cc2)nn1
IC50 (second compound 0.0316 µM): > 10 µM | IC50 (second compound 0.1 µM): > 10 µM | IC50 (second compound 0.316 µM): > 10 µM | IC50 (second compound 1 µM): > 10 µM | IC50 (second compound 3.16 µM): > 10 µM | IC50 (second compound 10 µM): > 10 µM | viability, T/C [1]: 99.6% | viability, T/C [2]: 87.8% | viability, T/C [3]: 73.5% | viability, T/C [4]: 72.2% | viability, T/C [5]: 64.4% | viability, T/C [6]: 56.5% | viability, T/C [7]: 99.1% | viability, T/C [8]: 88.4% | viability, T/C [9]: 82.6% | viability, T/C [10]: 74.2% | viability, T/C [11]: 63.2% | viability, T/C [12]: 56.9% | viability, T/C [13]: 96.2% | viability, T/C [14]: 91.1% | viability, T/C [15]: 78.9% | viability, T/C [16]: 79.2% | viability, T/C [17]: 70.8% | viability, T/C [18]: 55% | viability, T/C [19]: 97.7% | viability, T/C [20]: 87.3% | viability, T/C [21]: 81.6% | viability, T/C [22]: 79% | viability, T/C [23]: 63% | viability, T/C [24]: 50.9% | viability, T/C [25]: 101% | viability, T/C [26]: 95.3% | viability, T/C [27]: 90.8% | viability, T/C [28]: 84.5% | viability, T/C [29]: 68.3% | viability, T/C [30]: 59.6% | viability, T/C [31]: 100% | viability, T/C [32]: 114% | viability, T/C [33]: 86.3% | viability, T/C [34]: 78.6% | viability, T/C [35]: 80.1% | viability, T/C [36]: 56.8%

CCc1cc2c(N3CCc4c(cc(Cn5ccnc5)cc4-c4cn(C)nc4C(F)(F)F)C3=O)ccnc2c(OC)n1 + Nc1ccc(C#CCN(C(=O)Cc2ncc(C(F)(F)F)cc2C(F)(F)F)c2ccc(F)cc2)nn1
IC50 (second compound 0.0316 µM): > 10 µM | IC50 (second compound 0.1 µM): > 10 µM | IC50 (second compound 0.316 µM): > 10 µM | IC50 (second compound 1 µM): > 10 µM | IC50 (second compound 3.16 µM): > 10 µM | IC50 (second compound 10 µM): > 10 µM | viability, T/C [1]: 119% | viability, T/C [2]: 91.5% | viability, T/C [3]: 84.1% | viability, T/C [4]: 78.7% | viability, T/C [5]: 72.4% | viability, T/C [6]: 63.3% | viability, T/C [7]: 99% | viability, T/C [8]: 88.2% | viability, T/C [9]: 80.8% | viability, T/C [10]: 84.6% | viability, T/C [11]: 72.3% | viability, T/C [12]: 62.6% | viability, T/C [13]: 93% | viability, T/C [14]: 95.1% | viability, T/C [15]: 90.3% | viability, T/C [16]: 72.6% | viability, T/C [17]: 78% | viability, T/C [18]: 55.8% | viability, T/C [19]: 112% | viability, T/C [20]: 92.3% | viability, T/C [21]: 93.3% | viability, T/C [22]: 76.5% | viability, T/C [23]: 76.6% | viability, T/C [24]: 58.1% | viability, T/C [25]: 101% | viability, T/C [26]: 99.2% | viability, T/C [27]: 93.6% | viability, T/C [28]: 82.4% | viability, T/C [29]: 68.3% | viability, T/C [30]: 60.7% | viability, T/C [31]: 111% | viability, T/C [32]: 114% | viability, T/C [33]: 89.1% | viability, T/C [34]: 84.7% | viability, T/C [35]: 81.8% | viability, T/C [36]: 58.5%

COc1cc2cc(C(=O)CCC(=O)O)sc2cc1OC + Nc1ccc(C#CCN(C(=O)Cc2ncc(C(F)(F)F)cc2C(F)(F)F)c2ccc(F)cc2)nn1
IC50 (second compound 0.0316 µM): > 10 µM | IC50 (second compound 0.1 µM): > 10 µM | IC50 (second compound 0.316 µM): > 10 µM | IC50 (second compound 1 µM): > 10 µM | IC50 (second compound 3.16 µM): > 10 µM | IC50 (second compound 10 µM): > 10 µM | viability, T/C [1]: 96.7% | viability, T/C [2]: 101% | viability, T/C [3]: 112% | viability, T/C [4]: 101% | viability, T/C [5]: 107% | viability, T/C [6]: 98.9% | viability, T/C [7]: 98.2% | viability, T/C [8]: 103% | viability, T/C [9]: 100% | viability, T/C [10]: 105% | viability, T/C [11]: 107% | viability, T/C [12]: 104% | viability, T/C [13]: 93.8% | viability, T/C [14]: 101% | viability, T/C [15]: 107% | viability, T/C [16]: 104% | viability, T/C [17]: 111% | viability, T/C [18]: 94.3% | viability, T/C [19]: 110% | viability, T/C [20]: 103% | viability, T/C [21]: 106% | viability, T/C [22]: 122% | viability, T/C [23]: 108% | viability, T/C [24]: 99.2% | viability, T/C [25]: 118% | viability, T/C [26]: 110% | viability, T/C [27]: 113% | viability, T/C [28]: 109% | viability, T/C [29]: 116% | viability, T/C [30]: 107% | viability, T/C [31]: 115% | viability, T/C [32]: 114% | viability, T/C [33]: 118% | viability, T/C [34]: 117% | viability, T/C [35]: 119% | viability, T/C [36]: 105%
